System: CD45+ cells
Assay: CD45+ cell trafficking between maternal/fetal compartments in the OOC device in response to an infectious stimulus
Assay type: cell-based, human
Details: LPS as infectious stimulus, preliminary study
Experimental: Immune cell migration and phenotyping by Cytometry by Time Of Flight (CyTOF) analysis: Preliminary CD45+ cell trafficking studies between the maternal/fetal compartments in the OOC device in response to an infectious stimulus (lipopolysaccharide [LPS]), to mimic bacterial infection, was conducted. In this model, LPS increased CD45+ cell influx into the fetal side and increased inflammation. Similar experiments can be repeated, and cell marker specificity can be tested through flow cytometry and immunocytochemistry^178. To study immunophenotypic changes associated with migrating immune cells, a multiplex tissue imaging technology can be used, e.g., Imaging Mass Cytometry (IMC) at an unprecedented resolution^179. IMC allows highly multiplexed, metal-based detection of 30 different protein markers at the same time, and enables high-dimensional, single-cell analysis of complex cell types without any background noise^180-184 (see Table 3 for a list of key/exemplary antibodies). For IMC, the top PDMS part can be removed so that fixed/attached cells stay on the histological glass slides on which the OOC device is built. IMC technology can be introduced to the OOC field, which allows for the analysis of cellular-level changes in OOC.

## lipopolysaccharide [LPS]
  CD45+ cell influx into the fetal side: increased
  inflammation: increased

Source: patent US20260117171A1, “Human Pregnancy on a Chip for Normal and Disease Biomarker Discovery and Preclinical Trials” (Board of Regents, The University of Texas System, priority 2023, published 2026)
